# “Also recorded” adds a separate entry of the source.
# How the values were obtained:
# male Wistar rats [1] = test: Experiment 3: four-day oral treatment of rats, roflumilast-mediated effects with or without MF-498; format: in vivo, rat
# male Wistar rats [2] = test: Experiment 2: four-day oral treatment of rats, roflumilast-mediated effects with or without SC-560 or Lumiracoxib; format: in vivo, rat
# Text: For pharmacokinetic analysis (determining plasma levels of the substances) one rat from each group was used on day 4; these rats were no longer available for the investigation of other parameters.
# male Wistar rats [3] = test: Experiment 1: four-day oral treatment of rats, roflumilast-mediated effects with or without diclofenac
# Experimental: Six male Wistar rats in each group were treated for four days with the following substances (all substances are given p.o.=orally):
# Group 1 (“control group”): Six male Wistar rats were given a daily dose of 0.5% Natrosol (placebo) at the times 0800, 1300 and 1700 hours.
# Group 2 (“diclofenac group”): Six male Wistar rats were given a daily dose of 1 mg/kg of diclofenac (NSAID) at the times 0800 and 1700 hours and 0.5% Natrosol (placebo) at 1300 hours.
# Group 3 (“roflumilast group”): Six male Wistar rats were given a daily dose of 0.5% Natrosol (placebo) at 0800 and 1700 hours and 10 mg/kg roflumilast (PDE4 inhibitor) at 1300 hours.
# Group 4 (“roflumilast+diclofenac group”): Six male Wistar rats were given a daily dose of 1 mg/kg diclofenac (NSAID) at the times 0800 and 1700 hours and 10 mg/kg roflumilast (PDE4 inhibitor) at 1300 hours.
# For pharmacokinetic analysis (determining the plasma levels of the substances) on day 4 one rat from each group was used; these rats were no longer available for other parameters under investigation.
# During the experiment the body weights of the animals were determined and the differences in the body weights of the rats from the different groups towards the end of the experiment were shown as a percentage change from the time of the first administration (=day 1, 0800 hours (=time t0)). The average±standard deviation of the body weights at time t0 was 355±17 g.
# At the end of the experiment (day 5, 95 hours after t0 (t0=the time of the first administration on day 1, 0800)) the proportion of neutrophils (in % of white blood cells, FIG. 2) were determined from the blood of 4 or 5 of the rats from the individual groups. In addition, the weights of the animals' spleens were measured and the mesenteries were dissected for histopathological investigation for vasculitis (multifocal perivascular mononuclear/polymorphonuclear infiltration).
# male Wistar rats [4] = test: Experiment 4: four-day oral treatment of rats, roflumilast-mediated effects with or without AH-6809; format: in vivo, rat
# Experimental: group 2 (“AH-6809 group”): Six male Wistar rats were given a daily dosage of 10 mg/kg AH-6809 (preferential EP2 antagonist) at 1300 hours.
# male Wistar rats [5] = test: Experiment 3: four-day oral treatment of rats, roflumilast-mediated effects with or without MF-498; format: in vivo, rat; details: 20 mg/kg MF-498 p.o. at 1300 hours, four days, no roflumilast
# Experimental: group 2 (“MF-498 group”): Six male Wistar rats were given a daily dosage of 20 mg/kg MF-498 (EP4 antagonist) in each case at 1300 hours.
# [6] = 10 mg/kg Roflumilast p.o. at 1300 hours for four days, read-out day 5, 95 hours after t0
# [7] = 2 mg/kg p.o. at 0800 and 1700 hours + 10 mg/kg Roflumilast at 1300 hours, four days
# [8] = AH-6809 and 10 mg/kg Roflumilast p.o. at 1300 hours, four days
# [9] = 20 mg/kg MF-498 and 10 mg/kg Roflumilast p.o. at 1300 hours, four days
# [10] = 1 mg/kg diclofenac p.o. at 0800 and 1700 hours + 10 mg/kg roflumilast at 1300 hours, four days
smiles,measurement,setting,value
O=C(Nc1c(Cl)cncc1Cl)c1ccc(OC(F)F)c(OCC2CC2)c1 [Roflumilast],PDE4 inhibitor-mediated side effects observed in the Roflumilast group,male Wistar rats [1]; [6],loss of body weight; also recorded: loss of spleen weight; also recorded: neutrophilia; also recorded: mesenteric vasculitis
same,PDE4 inhibitor-mediated side effects observed in the Roflumilast group,male Wistar rats [2]; [6],loss of body weight; also recorded: loss of spleen weight; also recorded: neutrophilia; also recorded: mesenteric vasculitis
same,death of animals in the roflumilast group,"male Wistar rats [3]; 10 mg/kg roflumilast p.o. daily, six rats per group",died between day 4 and day 5
same,PDE4 inhibitor-mediated side effects observed in the Roflumilast group,male Wistar rats [4]; [6],loss of body weight; also recorded: loss of spleen weight; also recorded: neutrophilia; also recorded: mesenteric vasculitis
Cc1ccc(Nc2c(F)cccc2Cl)c(CC(=O)O)c1 [Lumiracoxib],effect of co-administration on roflumilast-mediated loss of body weight (FIG. 5),male Wistar rats [2]; [7],substantially reduced or prevented
same,effect of co-administration on roflumilast-mediated loss of spleen weight (FIG. 6),male Wistar rats [2]; [7],substantially reduced or prevented
same,"effect of co-administration on roflumilast-mediated mesenteric vasculitis (monocyte/polymorphonuclear perivascular infiltration, FIG. 8)",male Wistar rats [2]; [7],substantially reduced or prevented
same,effect of co-administration on roflumilast-mediated neutrophilia (FIG. 7),male Wistar rats [2]; [7],substantially reduced or prevented
same,"parameters measured after administration on its own (body weight, spleen weight, neutrophils, mesenteric vasculitis)","male Wistar rats [2]; 2 mg/kg p.o. at 0800 and 1700 hours, four days, no roflumilast",very similar to the control groups
"CC(C)Oc1ccc2c(=O)c3cc(C(=O)O)ccc3oc2c1 [AH6809, 6-isopropoxy-9-oxoxanthene-2-carboxylic acid]","parameters measured after administration on its own (body weight, spleen weight, neutrophils, mesenteric vasculitis)","male Wistar rats [4]; 10 mg/kg AH-6809 p.o. at 1300 hours, four days, no roflumilast",very similar to the control group
same,influence of co-administration on roflumilast-mediated loss of body weight (FIG. 13),male Wistar rats [4]; [8],no indications that the EP2 preferential receptor antagonist AH-809 had any influence
same,influence of co-administration on roflumilast-mediated loss of spleen weight (FIG. 14),male Wistar rats [4]; [8],no indications that the EP2 preferential receptor antagonist AH-809 had any influence
same,"influence of co-administration on roflumilast-mediated mesenteric vasculitis (monocyte/polymorphonuclear perivascular infiltration, FIG. 16)",male Wistar rats [4]; [8],no indications that the EP2 preferential receptor antagonist AH-809 had any influence
same,influence of co-administration on roflumilast-mediated neutrophilia (FIG. 15),male Wistar rats [4]; [8],no indications that the EP2 preferential receptor antagonist AH-809 had any influence
"CCOc1c2c(c(OCC)c3ncccc13)CN(c1ccc(CS(=O)(=O)NC(=O)Cc3ccccc3OC)cc1C)C2=O [MF-498, N-{[4-(5,9-diethoxy-6-oxo-6,8-dihydro-7H-pyrrolo(3,4-g)quinolin-7-yl)-3-methylbenzyl)sulphonyl}-2-(2-methoxyphenyl)acetamide]",effect of co-administration on roflumilast-mediated loss of body weight (FIG. 9),male Wistar rats [1]; [9],substantially reduced
same,effect of co-administration on roflumilast-mediated loss of spleen weight (FIG. 10),male Wistar rats [1]; [9],substantially reduced
same,"effect of co-administration on roflumilast-mediated mesenteric vasculitis (monocyte/polymorphonuclear perivascular infiltration, FIG. 12)",male Wistar rats [1]; [9],substantially reduced
same,effect of co-administration on roflumilast-mediated neutrophilia (FIG. 11),male Wistar rats [1]; [9],substantially reduced
same,differences in the weight of the spleen between the Roflumilast group and the Roflumilast+MF-498 group (statistics),"male Wistar rats [1]; 20 mg/kg MF-498 and 10 mg/kg Roflumilast p.o., one animal of the Roflumilast group had an unusually small loss of spleen weight",do not achieve statistical significance
same,"parameters measured after administration on its own (body weight, spleen weight, neutrophils, mesenteric vasculitis)",male Wistar rats [5],very similar to the control group
O=C(O)Cc1ccccc1Nc1c(Cl)cccc1Cl [diclofenac],effect of co-administration on roflumilast-mediated loss of body weight (FIG. 1),male Wistar rats [3]; [10],substantially reduced or prevented
same,effect of co-administration on roflumilast-mediated loss of spleen weight (FIG. 2),male Wistar rats [3]; [10],substantially reduced or prevented
same,"effect of co-administration on roflumilast-mediated mesenteric vasculitis (monocyte/polymorphonuclear infiltration into the mesentery, FIG. 4)",male Wistar rats [3]; [10],substantially reduced or prevented
same,effect of co-administration on roflumilast-mediated neutrophilia (FIG. 3),male Wistar rats [3]; [10],substantially reduced or prevented
same,"parameters measured after administration on its own (body weight, spleen weight, neutrophils, mesenteric vasculitis)","male Wistar rats [3]; 1 mg/kg diclofenac p.o. at 0800 and 1700 hours, four days, no roflumilast",very similar to the control groups

# Reference: patent US8877758B2, “Combinations of medicaments, containing PDE4-inhibitors and EP4-receptor-antagonists” (Boehringer Ingelheim International GmbH, priority 2010, dated 2014)
